Consider 3 compounds from US8759504B2, “Cholinergic/serotoninergic receptor and uses thereof” (AbbVie Inc., priority 2007, dated 2014).

“Also recorded” adds a separate entry of the source. Where two headings read alike, the source gives them in different places. Marks after values point to notes of the source that are not given here.

Assay [1] concerns the target T1, Chimera 1 (Homo sapiens, UniProt P36544, M226I/T225V). The experiment in a line: Two electrode voltage clamp in Xenopus oocytes (POETs), agonist and modulator responses. It counts as cell-based. More on the design: expressed in transfected cells; host or cells: Xenopus laevis oocytes (transient, A1). On the technique in general: Two-electrode voltage clamp holds a large cell at a set potential and records current.

Assay [2] addresses T1, Chimera 1. The experiment in a line: Membrane potential imaging (FLIPR-FMP) in HEK-293 cells. Type of assay: cell-based. On the set-up: expressed in transfected cells. The note with it: for Modulation of submaximum agonist-evoked membrane potential response (words): HEK-293 cells, FMP.
The target of assay [3] is T2, wild-type human 5-HT3A receptors (Homo sapiens, UniProt P46098).
T2 construct: expressed in transfected cells; host or cells: Xenopus laevis oocytes
T2 sequence (P46098 1-484 isoform P46098-4): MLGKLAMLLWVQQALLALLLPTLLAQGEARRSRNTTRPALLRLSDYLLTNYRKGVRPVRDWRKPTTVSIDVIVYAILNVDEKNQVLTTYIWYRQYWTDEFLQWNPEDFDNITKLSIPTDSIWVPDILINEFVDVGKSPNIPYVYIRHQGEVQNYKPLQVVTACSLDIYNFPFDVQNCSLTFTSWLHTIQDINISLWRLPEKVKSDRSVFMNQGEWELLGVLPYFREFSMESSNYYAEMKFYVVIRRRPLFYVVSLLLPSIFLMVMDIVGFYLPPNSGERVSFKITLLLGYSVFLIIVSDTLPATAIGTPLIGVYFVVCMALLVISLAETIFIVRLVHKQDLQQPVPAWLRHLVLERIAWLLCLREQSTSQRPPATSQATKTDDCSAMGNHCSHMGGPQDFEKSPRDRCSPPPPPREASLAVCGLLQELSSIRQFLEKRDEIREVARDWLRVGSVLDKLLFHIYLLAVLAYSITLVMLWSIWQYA
The experiment in a line: Two electrode voltage clamp in Xenopus oocytes, agonist and modulator responses. It counts as cell-based.

The target of assay [4] is T3, Chimera 2 (Homo sapiens, UniProt P36544, M226I/T225V). The experiment in a line: Two electrode voltage clamp in Xenopus oocytes (POETs), agonist and modulator responses. Type of assay: cell-based. On the set-up: expressed in transfected cells; host or cells: Xenopus laevis oocytes (transient, A2).
Assay [5] deals with T4, wild-type α7 nicotinic acetylcholine receptor (Homo sapiens, UniProt P36544).
T4 construct: expressed in transfected cells; host or cells: Xenopus laevis oocytes
The experiment in a line: Two electrode voltage clamp in Xenopus oocytes, agonist and modulator responses. It counts as cell-based.

The target of assay [6] is T3, Chimera 2. The experiment in a line: Whole cell patch clamp in HEK-293 cells. It counts as cell-based. More on the design: expressed in transfected cells. In general terms: In patch-clamp work, channel activity is measured electrically.
Assay [7] has as its target T5, rat brain α7* nicotinic acetylcholine receptors (Rattus norvegicus, UniProt Q05941).
T5 construct: expressed both as a native (rat cortex) or α7/5-HT3 chimeric receptor; from tissue; host or cells: rat brain / rat cortex homogenates
The experiment in a line: [3H]A-585539 radioligand binding, rat brain homogenates.

In assay [8] the target is T3, Chimera 2. The experiment in a line: Membrane potential imaging (FLIPR-FMP) in HEK-293 cells. It counts as cell-based. More on the design: expressed in transfected cells. Conditions: for Modulation of submaximum agonist-evoked membrane potential response (words): HEK-293 cells, FMP.
For assay [9], the target named is T3, Chimera 2. The experiment in a line: [3H]A-585539 radioligand binding, HEK-293 membranes/homogenates. More on the design: expressed in transfected cells. Conditions: for Competition / displacement of [3H]A-585539 binding: increasing concentrations.
In a further assay the target is T6, Chimera 8 (Homo sapiens, UniProt P46098, I238M/V237T).
T6 construct: expressed in transfected cells; host or cells: Xenopus laevis oocytes
The experiment in a line: Two electrode voltage clamp in Xenopus oocytes, reverse 5HT3-α7 chimera. Type of assay: cell-based. As to the method: Xenopus laevis oocytes were prepared and injected as previously described {Eisele, 1993 #2; Krause, 1998 #4}. Briefly, ovaries were harvested from female Xenopus. Isolation of the oocytes was obtained by enzymatic dissociation using collagenase type I in a medium deprived of calcium and by gentle mechanical agitation for approximately 3 hours. Oocytes stage 5-6 were manually selected on the next day and injected into the nucleus with 2 ng plasmid containing the cDNA of interest. Oocytes were then placed in a 96 well microtiter plate in Barth solution and used for electrophysiological investigation two to five days later. All recordings were performed at 18° C. and cells were superfused with OR2 medium containing in mM:NaCl 82.5, KCI 2.5, HEPES 5, CaCl2.2H2O 2.5, MgCl2.6H2O 1, pH 7.4, and 0.5 μM atropine was added to prevent possible activation of endogenous muscarinic receptors. Unless indicated cells were held at −100 mV using a two electrode voltage clamp apparatus connected to a Geneclamp amplifier (Molecular Devices). Data were captured and analyzed using data acquisition and analysis software. […] Values indicated throughout the text are given with their respective standard error of the mean (SEM). For statistical analysis we used the unpaired, two-tailed Student's T test using either excel (Microsoft) or Matlab (Mathworks Inc.).
To examine the putative role of the transmembrane domains, a reverse chimera comprising the 5-HT3 ligand binding domain and the transmembrane domain of α7 was designed and constructed. […] See FIGS. 13A and B. To best evaluate a putative allosteric modulation, currents evoked by low agonist concentration were also investigated, but exposure to either NS-1738 or PNU-120596 caused no detectable modification of the response amplitude or time course. […] Data not shown. […] The cartoon above the traces in FIG. 13 illustrates the schematic structure of a single subunit inserted into the membrane. The gray line corresponds to the extracellular 5HT3 receptor sequence, whereas the dark line indicates the α7 segments. Despite the low yield of expression, significant and reproducible currents were evoked by brief exposure to 5-HT.

T1 sequence (P36544 with tags, fused parts or gaps T225V/M226I): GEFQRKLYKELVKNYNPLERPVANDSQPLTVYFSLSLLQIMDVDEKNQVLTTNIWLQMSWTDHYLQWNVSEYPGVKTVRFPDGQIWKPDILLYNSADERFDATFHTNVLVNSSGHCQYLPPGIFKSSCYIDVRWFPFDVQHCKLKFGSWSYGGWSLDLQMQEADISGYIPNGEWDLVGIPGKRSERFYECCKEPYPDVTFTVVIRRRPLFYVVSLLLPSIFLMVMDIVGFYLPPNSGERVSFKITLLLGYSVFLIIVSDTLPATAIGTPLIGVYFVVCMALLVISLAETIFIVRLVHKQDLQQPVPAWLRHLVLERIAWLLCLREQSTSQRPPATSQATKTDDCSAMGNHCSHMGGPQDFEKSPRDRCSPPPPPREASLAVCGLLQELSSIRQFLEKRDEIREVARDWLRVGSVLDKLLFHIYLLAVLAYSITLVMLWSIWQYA
T3 sequence (P36544 with tags, fused parts or gaps T225V/M226I): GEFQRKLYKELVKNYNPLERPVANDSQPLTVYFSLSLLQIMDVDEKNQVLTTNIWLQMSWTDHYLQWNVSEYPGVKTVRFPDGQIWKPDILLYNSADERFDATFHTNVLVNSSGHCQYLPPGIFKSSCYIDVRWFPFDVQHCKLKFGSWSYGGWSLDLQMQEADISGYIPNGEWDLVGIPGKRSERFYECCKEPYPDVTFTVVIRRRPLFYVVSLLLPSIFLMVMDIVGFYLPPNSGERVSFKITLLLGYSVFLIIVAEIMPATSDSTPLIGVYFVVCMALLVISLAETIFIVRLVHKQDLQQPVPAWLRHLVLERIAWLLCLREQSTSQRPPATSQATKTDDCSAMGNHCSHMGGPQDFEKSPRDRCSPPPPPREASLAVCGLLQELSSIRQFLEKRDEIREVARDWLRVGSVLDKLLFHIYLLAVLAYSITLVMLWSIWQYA
T5 sequence (Q05941 23-502): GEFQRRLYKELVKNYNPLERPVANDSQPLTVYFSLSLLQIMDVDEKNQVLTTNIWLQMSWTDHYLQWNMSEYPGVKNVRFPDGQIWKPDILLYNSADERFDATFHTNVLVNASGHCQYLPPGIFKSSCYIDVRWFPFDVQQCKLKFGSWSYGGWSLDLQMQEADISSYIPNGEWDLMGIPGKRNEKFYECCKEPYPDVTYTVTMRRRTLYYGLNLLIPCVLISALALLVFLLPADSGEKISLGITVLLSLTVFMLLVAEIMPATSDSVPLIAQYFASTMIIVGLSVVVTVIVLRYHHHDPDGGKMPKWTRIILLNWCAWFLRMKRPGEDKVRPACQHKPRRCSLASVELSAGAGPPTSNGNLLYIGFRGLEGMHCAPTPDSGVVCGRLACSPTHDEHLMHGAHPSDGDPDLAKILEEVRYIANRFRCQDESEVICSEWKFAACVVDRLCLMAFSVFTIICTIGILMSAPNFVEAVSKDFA
T4 sequence (P36544 23-502): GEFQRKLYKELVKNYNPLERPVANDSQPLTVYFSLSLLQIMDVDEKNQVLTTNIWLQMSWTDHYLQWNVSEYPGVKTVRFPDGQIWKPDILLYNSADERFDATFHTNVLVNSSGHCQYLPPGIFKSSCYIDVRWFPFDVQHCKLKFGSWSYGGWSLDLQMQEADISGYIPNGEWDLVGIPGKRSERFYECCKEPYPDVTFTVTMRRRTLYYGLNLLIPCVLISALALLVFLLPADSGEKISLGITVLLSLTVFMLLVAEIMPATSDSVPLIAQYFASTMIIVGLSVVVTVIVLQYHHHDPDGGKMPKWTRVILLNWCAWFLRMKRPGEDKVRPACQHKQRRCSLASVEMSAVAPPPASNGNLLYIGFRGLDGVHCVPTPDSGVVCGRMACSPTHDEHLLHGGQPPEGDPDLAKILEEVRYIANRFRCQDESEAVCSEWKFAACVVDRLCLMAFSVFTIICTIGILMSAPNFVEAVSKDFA
T6 sequence (P46098 with tags, fused parts or gaps isoform P46098-4 V243T/I244M): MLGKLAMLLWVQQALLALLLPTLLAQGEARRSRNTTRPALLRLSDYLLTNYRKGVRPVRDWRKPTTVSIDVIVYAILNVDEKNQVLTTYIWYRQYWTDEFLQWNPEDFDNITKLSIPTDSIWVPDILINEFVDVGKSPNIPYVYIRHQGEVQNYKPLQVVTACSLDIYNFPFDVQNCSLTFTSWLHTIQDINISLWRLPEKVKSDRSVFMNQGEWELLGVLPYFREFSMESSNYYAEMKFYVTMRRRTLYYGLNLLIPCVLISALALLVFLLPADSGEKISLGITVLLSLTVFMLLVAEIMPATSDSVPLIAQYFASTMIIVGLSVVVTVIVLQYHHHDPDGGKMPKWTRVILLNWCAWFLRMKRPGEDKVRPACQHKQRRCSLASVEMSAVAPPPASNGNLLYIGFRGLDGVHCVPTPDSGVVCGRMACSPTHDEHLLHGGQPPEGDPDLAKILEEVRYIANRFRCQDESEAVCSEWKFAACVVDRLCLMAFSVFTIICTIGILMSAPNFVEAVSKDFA

For `O=c1c(-c2ccc(O)cc2)coc2cc(O)cc(O)c12` [Genistein, genistein], the “Percentage potentiation of submaximum agonist-evoked responses (mean±S.E.M.)” value was determined as 65±27% at Chimera 1 [1] (100 μM ACh), 52±7% in [3] (1-3 μM 5-HT), 234±19% at Chimera 2 [4] (10-30 μM ACh) and 246±17% in [5] (100 μM ACh). Also, the “Direct current activation by modulator alone” value was “did not activate currents” on Chimera 1 [1] (Xenopus oocytes); “did not activate currents” in assay [3] (Xenopus oocytes); “activated currents at 30 and 100 μM; also recorded: evoked unique agonist-like current” at Chimera 2 [4] (Xenopus oocytes); “did not activate currents” in assay [5] (Xenopus oocytes); “directly activated the Chimera 2 receptor current” at Chimera 2 [6] (genistein 100 μM, 5-HI 10 mM). In addition, the inhibition at 100 µM at Chimera 1 [1] (read-out: Observed % inhibitory effect on submaximum ACh-evoked response) was approximately 35%. Moreover, the “Modulation of submaximum agonist-evoked membrane potential response (words)” value was “unable to do so” at Chimera 1 [2]; “not effective as positive allosteric modulator; also recorded: inhibited Chimera 1” at Chimera 1 [2] (listed as genistein); “enhanced agonist-evoked depolarization” at Chimera 2 [8]; “very effective” at Chimera 2 [8] (listed as genestein); “potentiated submaximum NS6784 evoked responses; also recorded: potentiated Chimera 2 receptors” on Chimera 2 [8] (listed as genistein). The IC50 at Chimera 1 [2] (read-out: FMP imaging: IC50 (95% C.I.), inhibition of agonist-evoked response, submaximum NS6784) stood at 23.3 µM. Also, the “Maximum positive allosteric modulation efficacy” value at Chimera 1 [2] (submaximum NS6784 120-200 nM) is listed as 14±3%; on Chimera 2 [8] (submaximum NS6784 60-70 nM) it was 221±30%. The “Effect of modulator on agonist (5-HT)-evoked current” value in assay [3] (Xenopus oocytes) is “Neither compound increased the responses”. The “Observed % inhibitory effect on submaximum 5-HT-evoked response” value in assay [3] (at 30 μM) is recorded as approximately 48%^a at 30. The inhibition at 30 µM in assay [3] (at 30 μM, read-out: Observed % inhibitory effect on submaximum 5-HT-evoked response) was approximately 50%. Besides, the “Effect of modulator on ACh-evoked current (words)” value on Chimera 2 [4] (Xenopus oocytes) is “potentiated peak amplitude of ACh current responses”; at Chimera 2 [4] (Xenopus oocytes, listed as genestein), “potentiated ACh responses in Chimera 2”; in assay [5] (Xenopus oocytes) it was “primarily increasing the current amplitude”. The “Fold increase of submaximum ACh-evoked currents” value (at Chimera 2 [4] (Xenopus oocytes); in assay [5] (Xenopus oocytes)) was 2-3 fold each time. Also, the EC50 stood at 5.2 µM at Chimera 2 [4] (read-out: Positive allosteric modulation potency, two electrode voltage clamp: EC50 (95% C.I.)); 10.6 µM in [5] (Positive allosteric modulation potency, two electrode voltage clamp: EC50 (95% C.I.), submaximum ACh (100 μM)-evoked response); 4.3 µM on Chimera 2 [8] (read-out: FMP imaging: positive allosteric modulation EC50 (95% C.I.), submaximum NS6784 (60-70 nM)). Further, at Chimera 2 [6] (100 μM), the “Directly evoked peak response normalized to 100 μM ACh” value turned out to be 72.6±22.2%. On Chimera 2 [6] (100 μM), the “Directly evoked total charge (integral) normalized to 100 μM ACh” value is 162.5±5.3%. The “Positive allosteric modulation of ACh-evoked current” value on Chimera 2 [6] (genistein 30-50 μM, 5-HI 1 mM) is “effective as positive allosteric modulators”. The “Effect on [3H]A-585539 saturation binding” value (in assay [7] (10 μM); at Chimera 2 [9] (10 μM)) was “did not alter the saturation profile; also recorded: did not alter the saturation binding” throughout. Moreover, the “Competition / displacement of [3H]A-585539 binding” value in assay [7] (rat cortex, increasing concentrations) was “neither compound effectively displaced the binding”; at Chimera 2 [9], “neither compound effectively displaced the binding”.
Regarding `NCCc1c[nH]c2ccc(O)cc12` [5-HT, 5-hydroxytryptamine], the Emax in [3] (Xenopus oocytes, read-out: Maximum activation) stood at 100%. Moreover, on Chimera 8, the “Agonist-evoked current” value is reported as “significant inward currents”.
As to `CCN1C[C@]2(COC(=O)c3ccccc3N3C(=O)C[C@H](C)C3=O)CC[C@H](OC)[C@@]34[C@@H]5C[C@H]6[C@H](OC)[C@@H]5[C@](O)(C[C@@H]6OC)[C@@](O)([C@@H](OC)[C@H]23)[C@@H]14` [methyllycaconitine], the “Competition / displacement of [3H]A-585539 binding” value (in [7]; on Chimera 2 [9]) was “competed with the binding” in each case.

A word on the IC50: it is the concentration that gives 50% inhibition. The EC50 is the concentration giving half of the maximal effect.
